Experimental data published in patent US7803831B2, “3-(2-hydroxy-phenyl)-1H-pyrazole-4-carboxylic acid amide derivatives as HSP90 inhibitors for the treatment of cancer” (Vernalis (Cambridge) Limited, priority 2002, dated 2010).

Molecular target: T1, yeast HSP90 (Saccharomyces cerevisiae, UniProt P02829)
T1 construct: made in house; host or cells: E. coli
Experiment: Malachite green ATPase assay
Format: biochemical
Conditions: activity range
Description: The intrinsic ATPase activity of HSP90 may be measured using yeast HSP90 as a model system. The assay, based on the use of malachite green for the measurement of inorganic phosphate, was used to test the HSP90 inhibitory activity of the compounds of the Examples herein.
Malachite Green ATPase Assay
Chemicals are of the highest purity commercially available and all aqueous solutions are made up in AR water. Because of the need to minimise contamination with inorganic phosphate, precautions should be taken with solutions and apparatus used in the assays. Glassware and pH meters are rinsed with double distilled or deionised water before use and, wherever possible, plastic ware should be used. Gloves are worn for all procedures. • (1) Greiner 384-well (Greiner 781101) or Costar 384-well flat-bottomed polystyrene multiwell plates (VWR). • (2) Assay buffer of (a) 100 mM Tris-HCl, pH 7.4, (b) 150 mM KCI, (c) 6 mM MgCl2. Stored at room temperature. • (3) 0.0812% (w/v) malachite green (M 9636, Sigma Aldrich Ltd., Poole, UK). Stored at room temperature. • (4) 2.32% (w/v) polyvinyl alcohol USP (P 1097, Sigma Aldrich Ltd, Poole, UK) in boiling water (see Comment 1), allowed to cool, and stored at room temperature. • (5) 5.72% (w/v) ammonium molybdate in 6 M hydrochloric acid. Stored at room temperature. • (6) 34% (w/v) sodium citrate. Stored at room temperature. • (7) 100 mM ATP, disodium salt, special quality (47699, Sigma Aldrich). Stored at −20° C. • (8) E. coli expressed yeast HSP90 protein, purified >95% (see, e.g., Panaretou et al., 1998) and stored in 50 uL aliquots at −80° C. Method • 1. Dilute test compounds to 500 μM in AR water (DMSO concentration will be 2.5%). Transfer 2.5 μl of these compounds directly from the daughter plate to the assay plate, giving a final assay concentration of 100 μM. To obtain 12 point IC50 values, perform serial dilutions 1:2 to produce a range of assay concentrations from 100 μM to 97.6 nM (2.5% DMSO), and transfer 2.5 μl of each concentration into the assay plate. Column 1 in the assay plate contains no compound, as a negative control. An additional row with no compound is also used as a background. • 2. Prepare ATP by diluting 100 mM stock to 925 μM with assay buffer, and aliquot 5 μl of diluted ATP to each well including controls (final assay concentration 370 μM). • 3. Add 5 μl of buffer to background row. • 4. Dilute enzyme preparation to 1.05 μM with assay buffer, and aliquot 5 μl into each compound well and to the negative control column. • 5. Collect the reagents to the bottom of the well, cover plate with plate seal and incubate overnight at 37 degC. • 6. First thing in the morning prepare the Malachite Green Reagent. Add 2 parts of Malachite Green Solution, 1 part of Polyvinyl Alcohol Solution, 1 part of Ammonium Molybdate Solution, and 2 parts of AR water. • 7. Invert to mix, and leave for approximately 1 hour until the colour turns from brown to golden yellow. • 8. Add 40 μl of Malachite Green Reagent to each well, allow 5 mins for colour to develop. • 9. Add 5 μl of Sodium Citrate Reagent to each well (see comment 2) • 10. Re-cover with plate seal and shake on plate shaker for at least 15 mins. • 11. Measure Absorbance at 620 nm using a suitable plate reader (e.g. Victor, Perkin Elmer Life Sciences, Milton Keynes, UK). […] Comments • (1) The polyvinyl alcohol dissolves in boiling water with difficulty and stirring for 2-3 h is required. • (2) The time interval between addition of the malachite green reagent and the sodium citrate should be kept as short as possible in order to reduce the non-enzymatic hydrolysis of ATP. Once the sodium citrate is added, the colour is stable for up to 4 h at room temperature. • (3) Compounds can be added to the assay plates using a Biomek FX Robot (Beckman Coulter).

T1 sequence (P02829 whole entry, looked up): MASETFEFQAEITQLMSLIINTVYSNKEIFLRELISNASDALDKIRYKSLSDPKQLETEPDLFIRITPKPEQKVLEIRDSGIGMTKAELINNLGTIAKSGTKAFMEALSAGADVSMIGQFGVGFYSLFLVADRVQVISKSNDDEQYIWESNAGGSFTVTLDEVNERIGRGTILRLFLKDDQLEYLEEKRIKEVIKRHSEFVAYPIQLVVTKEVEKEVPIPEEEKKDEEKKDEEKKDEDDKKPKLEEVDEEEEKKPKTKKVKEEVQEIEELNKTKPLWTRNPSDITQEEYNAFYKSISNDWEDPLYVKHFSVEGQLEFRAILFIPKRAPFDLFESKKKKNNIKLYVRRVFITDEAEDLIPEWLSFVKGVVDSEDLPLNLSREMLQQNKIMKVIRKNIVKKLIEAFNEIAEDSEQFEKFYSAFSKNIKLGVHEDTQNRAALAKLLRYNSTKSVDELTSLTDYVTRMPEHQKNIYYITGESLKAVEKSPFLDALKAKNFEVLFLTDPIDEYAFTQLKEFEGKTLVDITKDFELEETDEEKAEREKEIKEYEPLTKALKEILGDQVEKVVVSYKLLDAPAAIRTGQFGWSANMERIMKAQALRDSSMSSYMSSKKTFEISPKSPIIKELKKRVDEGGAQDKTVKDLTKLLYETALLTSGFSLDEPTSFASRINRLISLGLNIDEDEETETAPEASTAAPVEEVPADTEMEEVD

| Compound | IC50 |
| --- | --- |
| O=C(Nc1ccccc1)c1c[nH]nc1-c1cc(Cl)c(O)cc1O [Example 2] | > 50 µM |
| O=C(c1c[nH]nc1-c1cc(Cl)c(O)cc1O)N1CCN(c2ccccc2)CC1 [Example 3] | > 50 µM |
| C=CCNC(=O)c1c[nH]nc1-c1cc(Cl)c(O)cc1O [Example 4] | > 50 µM |
| O=C(c1c[nH]nc1-c1cc(Cl)c(O)cc1O)N1CCOCC1 [Example 5] | > 50 µM |
| CN1CCN(C(=O)c2c[nH]nc2-c2cc(Cl)c(O)cc2O)CC1 [Example 6] | > 50 µM |
| O=C(NCCCN1CCOCC1)c1c[nH]nc1-c1cc(Cl)c(O)cc1O [Example 7] | > 50 µM |
| O=C(Nc1ccccn1)c1c[nH]nc1-c1cc(Cl)c(O)cc1O [Example 8] | > 50 µM |
| O=C(NCc1ccco1)c1c[nH]nc1-c1cc(Cl)c(O)cc1O [Example 9] | < 50 µM |
| O=C(NCCc1cccs1)c1c[nH]nc1-c1cc(Cl)c(O)cc1O [Example 10] | < 50 µM |
| O=C(NCCN1CCOCC1)c1c[nH]nc1-c1cc(Cl)c(O)cc1O [Example 11] | > 50 µM |
| O=C(NCCCO)c1c[nH]nc1-c1cc(Cl)c(O)cc1O [Example 12] | > 50 µM |
| O=C(Nc1ccc(O)cc1)c1c[nH]nc1-c1cc(Cl)c(O)cc1O [Example 13] | < 50 µM |
| COc1cccc(NC(=O)c2c[nH]nc2-c2cc(Cl)c(O)cc2O)c1 [Example 14] | < 50 µM |
| O=C(Nc1ccc2c(c1)OCCO2)c1c[nH]nc1-c1cc(Cl)c(O)cc1O [Example 15] | < 50 µM |
| O=C(Nc1ccc(O)c(O)c1)c1c[nH]nc1-c1cc(Cl)c(O)cc1O [Example 16] | > 50 µM |
| COc1ccc(NC(=O)c2c[nH]nc2-c2cc(Cl)c(O)cc2O)cc1 [Example 17] | < 50 µM |

| Compound | IC50 |
| --- | --- |
| O=C(Nc1ccc(Cl)cc1)c1c[nH]nc1-c1cc(Cl)c(O)cc1O [Example 18] | > 50 µM |
| CC(=O)Nc1ccc(NC(=O)c2c[nH]nc2-c2cc(Cl)c(O)cc2O)cc1 [Example 19] | > 50 µM |
| COC(=O)c1ccc(NC(=O)c2c[nH]nc2-c2cc(Cl)c(O)cc2O)cc1 [Example 20] | < 50 µM |
| NC(=O)c1ccc(NC(=O)c2c[nH]nc2-c2cc(Cl)c(O)cc2O)cc1 [Example 22] | < 50 µM |
| O=C(NCc1ccccc1)c1c[nH]nc1-c1cc(Cl)c(O)cc1O [Example 23] | > 50 µM |
| O=C(O)Cc1ccc(NC(=O)c2c[nH]nc2-c2cc(Cl)c(O)cc2O)cc1 [Example 24] | > 50 µM |
| COc1ccc(N(C)C(=O)c2c[nH]nc2-c2cc(Cl)c(O)cc2O)cc1 [Example 25] | > 50 µM |
| O=C(O)c1ccc(CNC(=O)c2c[nH]nc2-c2cc(Cl)c(O)cc2O)cc1 [Example 26] | < 50 µM |
| Cc1ccc(CNC(=O)c2c[nH]nc2-c2cc(Cl)c(O)cc2O)cc1 [Example 27] | < 50 µM |
| COc1ccc(CNC(=O)c2c[nH]nc2-c2cc(Cl)c(O)cc2O)cc1 [Example 28] | < 50 µM |
| O=C(NCc1ccc(F)cc1)c1c[nH]nc1-c1cc(Cl)c(O)cc1O [Example 29] | < 50 µM |
| O=C(NCc1ccc(Cl)cc1)c1c[nH]nc1-c1cc(Cl)c(O)cc1O [Example 30] | < 50 µM |
| COc1cccc(CNC(=O)c2c[nH]nc2-c2cc(Cl)c(O)cc2O)c1 [Example 31] | < 50 µM |
| O=C(NCc1cccc(C(F)(F)F)c1)c1c[nH]nc1-c1cc(Cl)c(O)cc1O [Example 32] | < 50 µM |
| CS(=O)(=O)c1ccc(CNC(=O)c2c[nH]nc2-c2cc(Cl)c(O)cc2O)cc1 [Example 33] | < 50 µM |

Tested on: not listed separately
Experiment: Sulforhodamine B (SRB) growth inhibition / cytotoxicity assay
Format: cell-based
Conditions: SRB growth arrest assay; cell line not stated
Description: A growth inhibition assay was also employed for the evaluation of candidate HSP90 inhibitors:
• 1) Determine cell number by haemocytometer. • 2) Using an 8 channel multipipettor, add 160 μl of the cell suspension (3600 cells/well or 2×10^4 cells/ml) to each well of a 96-well microtitre plate. • 3) Incubate overnight at 37° C. in a CO2 incubator. Day 2 • 4) Stock solutions of drugs are prepared, and serial dilutions of each drug are performed in medium to give final concentrations in wells. • 5) Using a multipipettor, 40 μl of drug (at 5× final concentration) is added to quadruplicate wells. • 6) Control wells are at either side of the 96 well plates, where 40 μl of medium is added. • 7) Incubate plates in CO2 incubator for 4 days (48 hours). Day 6 • 8) Tip off medium into sink and immerse plate slowly into 10% ice cold trichloroacetic acid (TCA). […] Leave for 15 mins. • 12) Wash off unbound SRB stain with four washes of 1% acetic acid. • 13) Dry plates in incubator. • 14) Solubilise SRB using 100 μl of 10 mM Tris base and put plates on plate shaker for 5 mins. • 15) Determine absorbance at 540 nm using a plate reader. Calculate mean absorbance for quadruplicate wells and express as a percentage of value for control, untreated wells. • 16) Plot % absorbance values versus log drug concentration and determine the IC50.

| Compound | IC50 |
| --- | --- |
| CC(=O)c1ccc(NC(=O)c2c[nH]nc2-c2cc(Cl)c(O)cc2O)cc1 [Example 1, 3-(5-chloro-2,4-dihydroxy-phenyl)-1H-pyrazole-4-carboxylic acid (4-acetyl-phenyl)-amide] | > 50 µM |
